Results on one compound are retold here after patent publication US7572885B2, “Isolated GAGE-7B and 8 proteins” (Ludwig Institute For Cancer Research, priority 1998, dated 2009).

Test [1] concerns GAGE genes expression in PHA stimulated PBLs. The experiment in a line: Induction of GAGE gene expression by demethylation in PHA stimulated PBLs. Format: cell-based. The following applies: 1 uM, 72 hours in culture medium. The procedure:
(§1) These experiments were designed to determine expression of GAGE genes in various cell and tumor types. For each type of cell assayed, total RNA was extracted, using standard guanidium-isothiocyanate procedures, as taught by e.g., Davis, et al. in Basic Methods In Molecular Biology, Elsevier Science Publishing Co., New York (1986), pp. 130-135. Reverse transcription was carried out on 2 ug samples of the total RNA, using 2 mM of Oligo(dT)15 primer, in a reaction volume of 20 ul. Portions of the resulting cDNA ( 1/20 of the product), were used in the PCR amplification. In order to amplify GAGE-1, 2, and 8, the primers used were:
(§2) For GAGE-3, 4, 5, 6; & 7B, the primers were: • 5′- GACCAAGGCG CTATGTAC-3′ • (sense, SEQ ID NO: 6) and SEQ ID NO: 5 For all amplifications, the denaturation step was 94° C. for 5 minutes, then 30 cycles of amplification (1 minute at 94° C., 2 minutes at 58° C., 2 minutes at 72° C.), then a final extension step of 72° C. for 15 minutes. The products were analyzed by agarose gel electrophoresis, with RNA integrity being checked by reverse transcription and amplification of β-actin mRNA.
(§3) In order to determine if expression of GAGE genes could be induced by demethylation, samples of cultured tumor and normal cells were incubated for 72 hours in culture medium containing 1 uM 5-aza-2′-deoxycytidine. SEQ ID NOS: 4 and 5, supra, were used in the amplification protocol.

The subject of test [2] is GAGE 1, 2, and 8 expression in sarcoma and melanoma cell lines. The experiment in a line: Induction of GAGE gene expression by demethylation, RT-PCR with SEQ ID NOS: 4 and 5. Particulars: 1 uM, 72 hours in culture medium. Format: cell-based. The procedure: as §1, §2, §3

Turning to `Nc1ncn([C@H]2C[C@H](O)[C@@H](CO)O2)c(=O)n1` [5-aza-2′-deoxycytidine], the “expression of all GAGE genes following treatment” value in test [1] is “expressed”. In addition, the “expression of GAGE 1, 2, and 8 after demethylating treatment” value in test [2] was “induced”.
